From patent publication US20080102497A1, “ENZYMATIC HYDROLYSIS OF STARCH” (priority 2006, published 2008)
Several values for one entry are separate records, joined by “and”; a condition that tells them apart may be missing. Equal values may be shown once. Read-outs that look alike come from different tables or passages of the source.

Experiments:
[1] = molecular target: glucoamylase from Aspergillus Niger (Aspergillus niger, UniProt P69328); settings: pH 5.2, 37° C., 10 min
Protocol: (§1) The separate reaction mixtures were incubated at 37° C. for 10 minutes. The control reaction mixture contained enzyme, buffer, and starch but no manganese ion. The starch hydrolysis reaction was stopped by combining the reaction mixture with a solution containing DNSA and heating for 30 min at 85° C. The absorbance of the control and test samples was measured at 562 nm to monitor the amount of reducing sugar in each sample.

[2] = system: α-amylase from Bacillus subtilis; experiment: hydrolysis of cooked dent corn starch; format: biochemical; settings: 0.01 mM Mn^++; cooked dent corn starch 0.5%; pH 5.2; 37° C., 10 min
Protocol: The separate reaction mixtures were incubated at 37° C. for 10 minutes. The control reaction mixtures contained enzyme, buffer, and starch but no manganese ion. The starch hydrolysis reaction was stopped by combining the reaction mixture with a solution containing DNSA and heating for 30 min at 85° C. The absorbance of the control and test samples was measured at 562 nm to monitor the amount of reducing sugar in each sample.

[3] = system: glucoamylase from Rhizopus sp.; experiment: hydrolysis of raw corn starch, reducing sugar by DNSA; format: biochemical; settings: for Relative Activity: raw corn starch, pH 5.3, 37° C., 20 min
Excerpt: (§2) The α-amylase from Aspergillus oryzae and the glucoamylase from Rhizopus sp.

[4] = molecular target: α-amylase from Aspergillus oryzae (Aspergillus oryzae, UniProt P0C1B3); experiment: as above; format: biochemical; settings: for Relative Activity: raw corn starch, pH 5.3, 37° C., 20 min
Excerpt: as §2

[5] = molecular target: T1, β-amylase Type II-B from barley (Hordeum vulgare, UniProt P16098); experiment: hydrolysis of raw corn starch or soluble starch; format: biochemical; settings: for % Relative Activity: pH 5.3, 37° C., 20 min
T1 construct: purchased Sigma Sigma-7130
T1 sequence (P16098 whole entry): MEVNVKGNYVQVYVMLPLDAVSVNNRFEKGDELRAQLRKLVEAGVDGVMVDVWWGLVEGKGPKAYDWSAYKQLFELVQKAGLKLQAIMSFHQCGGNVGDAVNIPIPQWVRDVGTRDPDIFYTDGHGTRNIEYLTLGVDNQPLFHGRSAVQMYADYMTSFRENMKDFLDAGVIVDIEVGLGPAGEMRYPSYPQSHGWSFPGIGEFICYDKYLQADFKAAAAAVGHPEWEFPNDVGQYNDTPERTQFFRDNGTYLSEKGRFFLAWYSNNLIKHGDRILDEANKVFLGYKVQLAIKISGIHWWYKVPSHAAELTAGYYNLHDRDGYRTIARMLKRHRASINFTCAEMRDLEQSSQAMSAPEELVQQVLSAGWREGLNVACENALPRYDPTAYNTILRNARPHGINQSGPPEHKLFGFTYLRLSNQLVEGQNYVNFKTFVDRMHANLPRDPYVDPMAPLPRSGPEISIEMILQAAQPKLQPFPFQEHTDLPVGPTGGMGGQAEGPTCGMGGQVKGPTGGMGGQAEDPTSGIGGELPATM
Protocol: Each of the buffered enzyme solutions was separately added to 15 mg raw corn starch or 0.6 mg soluble starch, and the reaction mixtures incubated at 37° C. for 20 minutes. The control reaction mixture contained substrate, enzyme, and buffer but no manganese ion. The starch hydrolysis reaction was stopped by combining the reaction mixture with a solution containing DNSA and heating for 30 min at 85° C. The absorbance of the control and test samples was measured at 562 nm to monitor the amount of reducing sugar in each sample.

β-amylase from barley = β-amylase from barley (Hordeum vulgare, UniProt P16098); experiment: hydrolysis of cooked corn starch varieties; format: biochemical; settings: pH 5.2, 37° C., 10 min
Sequence of β-amylase from barley (P16098 whole entry): as above
Protocol: as §1

[6] = 0.01 mM Mn^++, cooked dent corn starch 0.5%
[7] = 0.01 mM Mn^++, cooked high-amylose V corn starch 0.5%
[8] = 0.01 mM Mn^++, cooked soluble corn starch 0.5%
[9] = 0.01 mM Mn^++, cooked waxy corn starch 0.5%
[10] = 0.1 mM Mn^++, cooked dent corn starch 0.5%
[11] = 0.1 mM Mn^++, cooked high-amylose V corn starch 0.5%
[12] = 0.1 mM Mn^++, cooked soluble corn starch 0.5%
[13] = 0.1 mM Mn^++, cooked waxy corn starch 0.5%
[14] = 1 mM Mn^++, cooked dent corn starch 0.5%
[15] = 1 mM Mn^++, cooked high-amylose V corn starch 0.5%
[16] = 1 mM Mn^++, cooked soluble corn starch 0.5%
[17] = 1 mM Mn^++, cooked waxy corn starch 0.5%

Sequence of glucoamylase from Aspergillus Niger (P69328 25-640): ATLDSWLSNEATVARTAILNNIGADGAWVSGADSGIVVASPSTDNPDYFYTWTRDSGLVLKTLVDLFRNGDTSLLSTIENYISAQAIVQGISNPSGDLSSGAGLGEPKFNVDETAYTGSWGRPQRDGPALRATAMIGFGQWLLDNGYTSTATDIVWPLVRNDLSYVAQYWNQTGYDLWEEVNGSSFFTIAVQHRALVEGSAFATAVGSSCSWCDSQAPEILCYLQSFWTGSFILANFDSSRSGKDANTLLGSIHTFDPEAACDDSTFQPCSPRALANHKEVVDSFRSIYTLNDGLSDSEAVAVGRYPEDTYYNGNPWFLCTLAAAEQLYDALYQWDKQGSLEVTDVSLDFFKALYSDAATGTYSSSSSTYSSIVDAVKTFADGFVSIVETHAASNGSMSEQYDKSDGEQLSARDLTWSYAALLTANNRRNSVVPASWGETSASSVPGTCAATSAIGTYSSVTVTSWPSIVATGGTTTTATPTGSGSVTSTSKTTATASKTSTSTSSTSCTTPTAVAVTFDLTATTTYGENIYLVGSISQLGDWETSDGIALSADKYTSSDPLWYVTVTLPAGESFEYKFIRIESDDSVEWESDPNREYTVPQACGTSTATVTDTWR

## [Mn+2] [Mn^++, manganese ions]
[1]; [6]
  Relative Activity: 113.3%
[1]; [7]
  Relative Activity: 119.2%
[1]; [8]
  Relative Activity: 119.1%
[1]; [9]
  Relative Activity: 113.0%
[1]; [10]
  Relative Activity: 126.1%
[1]; [11]
  Relative Activity: 130.9%
[1]; [12]
  Relative Activity: 129.1%
[1]; [13]
  Relative Activity: 130.1%
[1]; [14]
  Relative Activity: 148.4%
[1]; [15]
  Relative Activity: 141.3%
[1]; [16]
  Relative Activity: 144.8%
[1]; [17]
  Relative Activity: 147.2%
[1]; 10 mM Mn^++, cooked dent corn starch 0.5%
  Relative Activity: 186.9%
[1]; 10 mM Mn^++, cooked high-amylose V corn starch 0.5%
  Relative Activity: 193.1%
[1]; 10 mM Mn^++, cooked soluble corn starch 0.5%
  Relative Activity: 178.3%
[1]; 10 mM Mn^++, cooked waxy corn starch 0.5%
  Relative Activity: 200.3%
[2]
  Relative Activity: 113.0% and 119.5%
[3]; 0.01 mM Mn^++
  Relative Activity: 105.0%
[3]; 0.1 mM Mn^++
  Relative Activity: 119.2%
[3]; 1 mM Mn^++
  Relative Activity: 133.5%
[3]; 10 mM Mn^++
  Relative Activity: 162.6%
[3]; summary of Table 3
  effect on hydrolysis of raw corn starch (in words): enhances the hydrolysis of raw corn starch
[4]; 0.01 mM Mn^++
  Relative Activity: 106.6%
[4]; 0.1 mM Mn^++
  Relative Activity: 125.5%
[4]; 1 mM Mn^++
  Relative Activity: 136.7%
[4]; 10 mM Mn^++
  Relative Activity: 155.6%
[4]; summary of Table 3
  effect on hydrolysis of raw corn starch (in words): enhances the hydrolysis of raw corn starch
[5]; 0.01 mM Mn^++, raw corn starch
  % Relative Activity: 99.5%
[5]; 0.01 mM Mn^++, soluble starch
  % Relative Activity: 112.5%
[5]; 0.1 mM Mn^++, raw corn starch
  % Relative Activity: 118.4%
[5]; 0.1 mM Mn^++, soluble starch
  % Relative Activity: 119.2%
[5]; 1 mM Mn^++, raw corn starch
  % Relative Activity: 133.3%
[5]; 1 mM Mn^++, soluble starch
  % Relative Activity: 155.7%
[5]; 10 mM Mn^++, raw corn starch
  % Relative Activity: 152.2%
[5]; 10 mM Mn^++, soluble starch
  % Relative Activity: 157.3%
[5]; raw corn starch and soluble starch
  effect on hydrolysis of starch (in words): enhances the hydrolysis of both raw corn starch and soluble starch
β-amylase from barley; [6]
  Relative Activity: 123.5%
β-amylase from barley; [7]
  Relative Activity: 111.2%
β-amylase from barley; [8]
  Relative Activity: 138.7%
β-amylase from barley; [9]
  Relative Activity: 114.2%
β-amylase from barley; [10]
  Relative Activity: 135.3%
β-amylase from barley; [11]
  Relative Activity: 123.3%
β-amylase from barley; [12]
  Relative Activity: 135.7%
β-amylase from barley; [13]
  Relative Activity: 129.9%
β-amylase from barley; [14]
  Relative Activity: 149.8%
β-amylase from barley; [15]
  Relative Activity: 136.3%
β-amylase from barley; [16]
  Relative Activity: 174.8%
β-amylase from barley; [17]
  Relative Activity: 148.3%
